For data set [1] the following is noted: cited from earlier work.
Data set [2] has as its target anti-vancomycin Fab fragment. As to the kind of experiment: BIAcore solution competition, equilibrium dissociation constant. In kind it is binding, mouse. The method, then: Biosensor surfaces were regenerated after each injection with successive 1 minute pulses of 6 M, 6M, and 1.5 M guanidine hydrochloride. Initial rates of binding of anti-vancomycin Fab fragment to the biosensor surface were measured over a 15 second window beginning 20 seconds postinjection. Data was evaluated by non-linear regression analysis using the solution affinity model built into BIAevaluation 3.0 software (BIAcore, Inc).
The binding affinities of several vancomycin analogs and tracers for anti-vancomycin Fab fragment were determined from solution competition experiments carried out on a BIAcore 2000. Initially, known concentrations of anti-vancomycin Fab fragment (0-22 nM) were injected over the aminoalkyl vancomycin biosensor surface. The initial rate of binding for each anti-vancomycin Fab fragment concentration was obtained by averaging the observed binding rate over a […] window beginning 20 seconds post injection. Data from the first 20 seconds of each sensorgram were omitted due to sample dispersion effects at the start of injections. A plot of initial binding rate versus concentration of anti-vancomycin Fab fragment was fit using a 4-parameter logistic (general model in BIAevaluation 3.0) providing a standard curve. […] A fixed concentration of anti-vancomycin Fab fragment (20 nM) was then mixed with twelve concentrations of each vancomycin analog or tracer and allowed to reach equilibrium. The equilibrium mixtures were individually injected over the aminoalkyl vancomycin biosensor surface, and the concentration of free anti-vancomycin Fab fragment remaining was quantitated by determination of the initial rate of binding to the biosensor surface as described above. A plot of free anti-vancomycin Fab fragment versus total concentration of added analog or tracer provides a competition curve. […] The data points represent the experimentally determined concentrations of free anti-vancomycin Fab fragment in equilibrium solutions at a given concentration of soluble analog or tracer. The curves represent the best nonlinear fit of the data using equation 1 (solution affinity model in BIAevaluation software) below: [formula]
where Fabτ is the concentration of free anti-vancomycin Fab fragment in equilibrium solutions, Fabτ is the total concentration of anti-vancomycin Fab fragment in solution (20 nM), A is the total concentration of added vancomycin analog or tracer, and KD is the equilibrium dissociation constant for the binding of the vancomycin analog or tracer to anti-vancomycin Fab fragment in solution.

For data set [3] the following is noted: 0.5 μM.
Experimental: (§1) Briefly, a continuous flow of HBS buffer at 10 μL/minute was initiated over the biosensor surface. The carboxymethylated dextran matrix on the sensor surface was activated by a 3.5 minute injection of a solution of 0.05 M HNS and 0.2 M EDAC. […] Blank surfaces were generated under identical conditions omitting the ligand immobilization step.
For these studies, an (N^ε-acetyl)KDADA tripeptide containing an aminocaproate linker from the amino terminus was immobilized via amine coupling to an activated carboxymethyl dextran surface of a CM-5 sensor chip.
Data set [4] has as its system anti-vancomycin Fab fragment. The conditions noted are these: substance immobilized on CM-5 sensor chip.
Experimental: as §1
Initial attempts to generate a biosensor surface involved immobilization of vancomycin to the activated carboxymethyl dextran surface of a CM-5 sensor chip through the primary amine of the vancosamine sugar moiety.
The mark [5] stands for this setting: in solution, 20 nM Fab fragment, read-out: Equilibrium Dissociation Constant (KD).

Like-named read-outs stand apart in the source and are kept apart here.

In the case of `CN[C@H](CC(C)C)C(=O)N[C@H]1C(=O)N[C@@H](CC(N)=O)C(=O)N[C@H]2C(=O)N[C@H]3C(=O)N[C@H](C(=O)N[C@H](C(=O)O)c4cc(O)cc(O)c4-c4cc3ccc4O)[C@H](O)c3ccc(c(Cl)c3)Oc3cc2cc(c3O[C@@H]2O[C@H](CO)[C@@H](O)[C@H](O)[C@H]2O[C@H]2C[C@](C)(N)[C@H](O)[C@H](C)O2)Oc2ccc(cc2Cl)[C@H]1O` [vancomycin (1), vancomycin], the values for the half life in data set [1] (normal patients) and in data set [1] (patients with renal insufficiency) were 5 to 11 h and 48 to 120 h, respectively. The equilibrium dissociation constant (Kd) in data set [2] (setting [5]) is not above 0.2 nM; in data set [2] (in the presence of (Nα,Nε-diacetyl)KDADA tripeptide (500 μM), read-out: KD) it was not above 0.2 nM. In addition, the “instrumental response at equilibrium” value in data set [3] is given as “approximately 50 Rus”. Further, the “binding capacity (Rumax) of biosensor surface” value in data set [4] was “minimal binding capacity”.

`CN[C@H](CC(C)C)C(=O)N[C@H]1C(=O)N[C@@H](CC(N)=O)C(=O)N[C@H]2C(=O)N[C@H]3C(=O)N[C@H](C(=O)N[C@H](C(=O)O)c4cc(O)cc(O)c4-c4cc3ccc4O)[C@H](O)c3ccc(c(Cl)c3)Oc3cc2cc(c3O[C@@H]2O[C@H](CO)[C@@H](O)[C@H](O)[C@H]2O)Oc2ccc(cc2Cl)[C@H]1O` [compound 5, Desvancosaminylvancomycin]: the dissociation constant (Kd) in data set [2] (setting [5]) came to 587 ± 27 nM.
